In experiment [1] the target is T1, Serine/threonine-protein kinase TAO3 (Homo sapiens) (UniProt Q9H2K8).
T1 sequence (whole entry): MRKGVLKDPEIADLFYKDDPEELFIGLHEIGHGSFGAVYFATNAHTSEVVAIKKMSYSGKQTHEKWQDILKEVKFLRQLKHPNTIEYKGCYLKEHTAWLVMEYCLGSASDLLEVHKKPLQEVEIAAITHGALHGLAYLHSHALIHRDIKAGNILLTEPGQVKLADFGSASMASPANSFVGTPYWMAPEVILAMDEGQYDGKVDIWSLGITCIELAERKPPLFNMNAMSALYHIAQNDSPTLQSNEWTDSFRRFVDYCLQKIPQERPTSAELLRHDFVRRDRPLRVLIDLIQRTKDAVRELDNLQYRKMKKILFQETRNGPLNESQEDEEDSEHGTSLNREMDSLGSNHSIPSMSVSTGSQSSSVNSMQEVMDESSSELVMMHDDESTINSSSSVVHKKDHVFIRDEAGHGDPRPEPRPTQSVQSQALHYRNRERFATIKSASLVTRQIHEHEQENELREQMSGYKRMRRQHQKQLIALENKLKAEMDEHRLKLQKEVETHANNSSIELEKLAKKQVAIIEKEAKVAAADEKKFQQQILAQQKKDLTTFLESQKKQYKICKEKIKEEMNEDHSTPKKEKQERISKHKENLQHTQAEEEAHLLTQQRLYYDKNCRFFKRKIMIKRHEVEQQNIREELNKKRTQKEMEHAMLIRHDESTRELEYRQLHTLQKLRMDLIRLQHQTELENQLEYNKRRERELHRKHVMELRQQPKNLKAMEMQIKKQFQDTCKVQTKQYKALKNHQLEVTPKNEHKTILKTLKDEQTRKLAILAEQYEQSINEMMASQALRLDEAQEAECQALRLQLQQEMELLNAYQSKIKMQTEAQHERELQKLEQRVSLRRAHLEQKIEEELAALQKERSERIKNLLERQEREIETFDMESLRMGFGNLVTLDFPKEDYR
Description: Selectivity interaction (KinomeScan (DiscoverX)) EUB0001619a TAOK3. The conditions noted are these: at 1 µM.

Experiment [2] deals with T2, 3-phosphoinositide-dependent protein kinase 1 (Homo sapiens) (UniProt O15530).
T2 sequence (whole entry): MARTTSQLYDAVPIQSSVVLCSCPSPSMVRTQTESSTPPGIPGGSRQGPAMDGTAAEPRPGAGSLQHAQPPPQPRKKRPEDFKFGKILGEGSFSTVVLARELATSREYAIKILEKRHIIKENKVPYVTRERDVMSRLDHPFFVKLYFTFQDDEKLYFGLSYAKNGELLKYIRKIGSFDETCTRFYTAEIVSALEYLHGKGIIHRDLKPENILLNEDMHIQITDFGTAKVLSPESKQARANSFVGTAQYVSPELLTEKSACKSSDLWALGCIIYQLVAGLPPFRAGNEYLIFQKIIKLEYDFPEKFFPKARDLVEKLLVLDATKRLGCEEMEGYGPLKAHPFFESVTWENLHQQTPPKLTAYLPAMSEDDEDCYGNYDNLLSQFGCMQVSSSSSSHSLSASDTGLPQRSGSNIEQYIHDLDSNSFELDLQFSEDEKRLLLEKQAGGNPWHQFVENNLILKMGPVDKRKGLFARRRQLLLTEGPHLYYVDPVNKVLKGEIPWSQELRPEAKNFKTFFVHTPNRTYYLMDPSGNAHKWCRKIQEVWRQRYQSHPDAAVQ
The experiment can be described thus: Selectivity interaction (KinomeScan (DiscoverX)) EUB0000695a PDPK1. The conditions noted are these: at 100 nM.

For experiment [3], the target named is T3, Dual specificity mitogen-activated protein kinase kinase 7 (Homo sapiens) (UniProt O14733).
T3 sequence (whole entry): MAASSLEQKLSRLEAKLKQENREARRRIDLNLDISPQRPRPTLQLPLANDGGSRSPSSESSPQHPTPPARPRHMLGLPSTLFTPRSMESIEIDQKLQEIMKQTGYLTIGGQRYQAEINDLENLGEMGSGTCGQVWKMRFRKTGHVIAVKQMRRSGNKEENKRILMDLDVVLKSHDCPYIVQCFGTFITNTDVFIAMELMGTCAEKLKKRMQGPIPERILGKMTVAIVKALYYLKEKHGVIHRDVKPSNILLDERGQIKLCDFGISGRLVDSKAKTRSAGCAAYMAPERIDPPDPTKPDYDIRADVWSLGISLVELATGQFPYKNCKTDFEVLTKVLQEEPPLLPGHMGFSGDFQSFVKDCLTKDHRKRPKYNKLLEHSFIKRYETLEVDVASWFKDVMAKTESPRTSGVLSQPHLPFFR
Description: Selectivity interaction (KinomeScan (DiscoverX)) EUB0000666a MAP2K7. The following applies: at 10 µM.

The target in experiment [4] is Tyrosine-protein kinase Yes (Homo sapiens) (UniProt P07947). The experiment can be described thus: Selectivity interaction (KinomeScan (DiscoverX)) EUB0000655a YES1. The following applies: at 10 µM.
Experiment [5] addresses T4, Serine/threonine-protein kinase ULK1 (Homo sapiens) (UniProt O75385).
T4 sequence (whole entry): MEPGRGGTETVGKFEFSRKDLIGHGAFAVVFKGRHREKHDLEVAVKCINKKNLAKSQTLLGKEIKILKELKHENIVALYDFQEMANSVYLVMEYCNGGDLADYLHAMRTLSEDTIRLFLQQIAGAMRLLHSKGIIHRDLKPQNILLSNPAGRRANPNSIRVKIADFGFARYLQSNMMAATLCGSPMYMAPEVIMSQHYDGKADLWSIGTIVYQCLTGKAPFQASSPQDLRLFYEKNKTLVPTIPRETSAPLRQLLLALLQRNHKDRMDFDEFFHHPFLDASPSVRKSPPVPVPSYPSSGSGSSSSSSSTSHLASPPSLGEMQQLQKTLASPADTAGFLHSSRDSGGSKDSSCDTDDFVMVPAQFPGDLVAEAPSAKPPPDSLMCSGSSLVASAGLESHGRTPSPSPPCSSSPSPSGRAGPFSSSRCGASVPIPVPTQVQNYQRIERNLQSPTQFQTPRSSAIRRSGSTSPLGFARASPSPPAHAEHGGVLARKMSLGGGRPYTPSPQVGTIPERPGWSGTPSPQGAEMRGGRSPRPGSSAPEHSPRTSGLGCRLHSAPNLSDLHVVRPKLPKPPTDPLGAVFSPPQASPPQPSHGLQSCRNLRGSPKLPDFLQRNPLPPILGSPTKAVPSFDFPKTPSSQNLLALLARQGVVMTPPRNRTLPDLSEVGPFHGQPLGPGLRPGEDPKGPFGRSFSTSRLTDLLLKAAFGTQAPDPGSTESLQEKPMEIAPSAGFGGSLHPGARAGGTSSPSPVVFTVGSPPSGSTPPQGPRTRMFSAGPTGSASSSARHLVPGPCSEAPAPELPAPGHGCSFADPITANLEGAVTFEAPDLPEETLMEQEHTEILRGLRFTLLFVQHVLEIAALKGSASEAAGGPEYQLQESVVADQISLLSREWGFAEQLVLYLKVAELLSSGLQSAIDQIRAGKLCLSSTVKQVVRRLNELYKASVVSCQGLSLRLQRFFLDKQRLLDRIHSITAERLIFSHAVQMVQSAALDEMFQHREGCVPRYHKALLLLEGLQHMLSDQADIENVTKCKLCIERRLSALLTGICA
The experiment can be described thus: Selectivity interaction (KinomeScan (DiscoverX)) EUB0001079a ULK1. The following applies: at 1 µM.

From ChEMBL document CHEMBL5465560, “Selectivity Literature for EUbOPEN Chemogenomic Library” (2024) come the findings set out here.

The structures appear in SMILES notation.

Chain of Tyrosine-protein kinase Yes (Homo sapiens) (P07947 2-543 limits assumed): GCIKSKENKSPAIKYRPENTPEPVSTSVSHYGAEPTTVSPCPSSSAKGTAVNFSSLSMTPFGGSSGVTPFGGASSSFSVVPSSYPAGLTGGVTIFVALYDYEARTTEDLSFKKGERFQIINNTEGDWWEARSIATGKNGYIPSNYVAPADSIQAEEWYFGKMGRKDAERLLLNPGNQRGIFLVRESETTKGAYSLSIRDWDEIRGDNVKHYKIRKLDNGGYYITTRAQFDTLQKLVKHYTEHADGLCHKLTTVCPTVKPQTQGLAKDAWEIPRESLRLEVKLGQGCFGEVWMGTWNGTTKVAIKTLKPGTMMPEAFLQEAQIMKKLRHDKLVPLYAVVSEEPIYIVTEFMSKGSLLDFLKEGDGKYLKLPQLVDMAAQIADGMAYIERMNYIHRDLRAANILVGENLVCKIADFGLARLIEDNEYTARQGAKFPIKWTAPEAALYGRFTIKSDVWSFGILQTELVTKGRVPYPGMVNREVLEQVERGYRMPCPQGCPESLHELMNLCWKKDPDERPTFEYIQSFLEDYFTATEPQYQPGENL

As for `N#Cc1cccc(-c2c[nH]c3ncnc(N4CCOCC4)c23)c1`, the % of control in experiment [1] is 36%. The compound `Cc1cc(F)c(C(=O)Nc2cccc(-c3nncn3C(C)C)n2)cc1-n1cnc(C2CC2)c1` showed a % of control in experiment [2] of 82%.

Compound `O=C(NOC[C@H](O)CO)c1ccc(F)c(F)c1Nc1ccc(I)cc1F` showed a % of control in experiment [3] of 100%. As to `CN(C)CCOc1ccc(-c2nc(-c3ccncc3)c(-c3ccc4c(c3)CC/C4=N\O)[nH]2)cc1`, in experiment [4], the % of control is 100%. In experiment [5], `Nc1cnc(N2CCc3cc(S(=O)(=O)Nc4c(F)cc(Cl)cc4F)cc(N4CCCC4=O)c32)nc1` [TP-020n] registered a % of control of 95%.
